The text below walks through data of patent publication US5021458A, “Amine derivatives and fungicides containing the same” (Kaken Pharmaceutical Co., Ltd., priority 1984, dated 1991).

Converted amounts (≈) assume the structure as drawn.

Series [1] deals with Trichophyton mentagrophytes. The series can be described thus: In vitro antifungal activity test (Test Example 1), Sabouraud's agar, Trichophyton mentagrophytes. The class given is cell-based. The conditions noted are these: 168 h; (a) Trichophyton mentagrophytes; 27° C., 7 days; read-out: minimal growth-inhibitory concentration (MIC). The procedure: (§1) The antifungal activity of the compound of the present invention against Trichophyton metagrophytes, Trichophyton interdigitale and Trichophyton rubrum was tested employing Sabouraud's agar medium.
(§2) Each test compound shown in Table 4 was dissolved into 1 ml of ethanol and thereto distilled water was added to adjust to the concentration of 1000 μg/ml. In this way twofold dilution series was made, 1 ml of which was respectively taken into shale and therewith 9 ml of Sabouraud's agar medium was mixed to form plate medium.
(§3) In this plate medium was implanted 0.0005 ml of each test fungus at 2×10^6 spores/ml by the microplanter MIP-2 (Sakuma Seisakusho Co., Ltd.) and was incubated at 27° C. for 7 days. The results were shown in Table 2 as the minimal growth-inhibitory concentration (MIC, μg/ml).

Series [2] has as its system Trichophyton rubrum. The series can be described thus: In vitro antifungal activity test (Test Example 1), Sabouraud's agar, Trichophyton rubrum. The class given is cell-based. The conditions noted are these: 168 h; (c) Trichophyton rubrum; 27° C., 7 days; read-out: minimal growth-inhibitory concentration (MIC). The protocol: as §1, §2, §3
Series [3] deals with Trichophyton interdigitale. The series can be described thus: In vitro antifungal activity test (Test Example 1), Sabouraud's agar, Trichophyton interdigitale. Type of series: cell-based. Conditions: 168 h; (b) Trichophyton interdigitale; 27° C., 7 days; read-out: minimal growth-inhibitory concentration (MIC). The procedure: as §1, §2, §3
Series [4] relates to Trichophyton mentagrophytes. The series can be described thus: Test on treatment of trichophytosis in guinea pig (Test Example 2). Conditions: 0.2 ml of 0.1 % solution in ethanol, once in a day for ten days since 48 hours after infection; guinea pig back skin. The class given is in vivo. The procedure: In the back of male Hartley guinea pig weighing 600° to 700 g, four portions were unhaired in an area of 4 cm^2 respectively and rubbed lightly with sandpaper, to which the second generation of Trichophyton mentagrophytes incubated inversely from another guinea pig was infected at 1×10^5 spores per portion. The test compounds obtained in Example 1 was dissolved in ethanol and 0.2 ml of the resultant 0.1 % solution was applied to the infected portions once in a day for ten days since 48 hours after the infection. Test animal was killed 2 days after the last treatment and 10 tissue specimens from each infected portions were placed on Sabouraud's plates containing cycloheximide and kanamycin, which were incubated at 27° C. for 7 days.
inhibitory ratio ={1-(number of tissue specimens found fungi/number of tissue specimens incubated inversely)}×100

The nature of series [5]: Side effect test on guinea pig skin (Test Example 3). Type of series: in vivo, male Hartley guinea pig. The conditions noted are these: 0.2 ml/day of 0.5 % solution in ethanol, once in a day for ten days; lightly rubbed guinea pig skin. The protocol: Two portions in the back of male Hartley guinea pig weighing 600° to 700 g were unhaired in an area of 4 cm^2 respectively in order to examine side effects of the test compounds. The next day unhaired portions were lightly rubbed with sandpaper. The test compounds obtained in Example 1 was dissolved in ethanol and 0.2 ml/day of the resultant 0.5 % solution was applied to one of the unhaired portions, while 0.2 ml/day of only ethanol was applied to the other portions, once in a day for ten days respectively.

On to `CN(Cc1ccc(C(C)(C)C)cc1)Cc1csc2ccccc12` [Example 29, N-4-tert-Butylbenzyl-N-methyl-3-benzo[b]-thienylmethylamine], for which the MIC in series [1] and in series [2] was 0.05 µg/mL (≈ 0.155 µM) throughout.
Regarding `CN(Cc1ccc(C(C)(C)C)cc1)Cc1ccc2ccccc2c1` [Example 10], the MIC amounted to 1.56 µg/mL (≈ 4.91 µM) in series [1], 1.56 µg/mL (≈ 4.91 µM) in series [3] and 0.39 µg/mL (≈ 1.23 µM) in series [2].
Take `CN(Cc1ccc(C(C)(C)C)cc1)Cc1cccc2ccsc12` [Example 35]: the MIC in series [1] and in series [2] was 0.78 µg/mL (≈ 2.41 µM) in each case.
Take `CN(Cc1ccc2ccccc2c1)Cc1ccc(F)c2ccccc12` [Example 43]: the MIC in series [1] and in series [2] was 0.2 µg/mL (≈ 0.607 µM) throughout.
As to `CCC(C)(C)c1ccc(CN(C)Cc2cccc3ccccc23)cc1` [Example 12, N-Methyl-N-4-tert-pentylbenzyl-1-naphthylmethylamine], the MIC in series [1] came to 0.0125 µg/mL (≈ 0.0377 µM); in series [3], 0.0125 µg/mL (≈ 0.0377 µM); in series [2], 0.006 µg/mL (≈ 0.0181 µM).
For `CN(Cc1ccc(C(C)(C)C)cc1)Cc1ccc(Br)c2ccccc12` [Example 6], the MIC in series [1] was 0.2 µg/mL (≈ 0.505 µM); in series [3] it was 0.2 µg/mL (≈ 0.505 µM); in series [2], 0.05 µg/mL (≈ 0.126 µM).
For the compound `CN(Cc1ccc2c(c1)CCCC2)Cc1cccc2ccccc12` [Example 54], the MIC in series [1] and in series [2] was 0.1 µg/mL (≈ 0.317 µM) throughout.
For the compound `CN(Cc1ccc(C(C)(C)C)cc1)Cc1cccc2c1CCCC2` [Example 39], the MIC in series [1] and in series [2] was 0.39 µg/mL (≈ 1.21 µM) throughout.
As to `CN(Cc1ccc(C(C)(C)C)cc1)Cc1ccc(I)c2ccccc12` [Example 7], the figures for the MIC in series [1], in series [3] and in series [2] were 0.78 µg/mL (≈ 1.76 µM), 0.39 µg/mL (≈ 0.88 µM) and 0.39 µg/mL (≈ 0.88 µM), respectively.
On to `CCN(Cc1ccc2ccccc2c1)Cc1cccc2ccccc12` [Example 63], for which the values for the MIC in series [1] and in series [2] were 0.39 µg/mL (≈ 1.2 µM) and 0.1 µg/mL (≈ 0.307 µM), respectively.
For `CN(Cc1ccc(C(C)(C)C)s1)Cc1cccc2ccccc12` [Example 69] the same measures were 0.05 µg/mL (≈ 0.155 µM) and 0.025 µg/mL (≈ 0.0773 µM).
`CC(C)c1ccc(CN(C)Cc2cccc3ccccc23)cc1` [Example 22, N-4-Isopropylbenzyl-N-methyl-1-naphthylmethylamine]: the MIC in series [1] is 0.025 µg/mL (≈ 0.0824 µM); in series [3], 0.1 µg/mL (≈ 0.33 µM); in series [2] it was 0.0125 µg/mL (≈ 0.0412 µM).
With `CN(Cc1ccc(C(C)(C)C)cc1)Cc1cccc2ccccc12.Cl` [Example 1, N-(4-tert-butylbenzyl)-N-methyl-1-naphthylmethylamine hydrochloride], the figures for the MIC in series [1], in series [3] and in series [2] were 0.0125 µg/mL, 0.006 µg/mL and 0.003 µg/mL, respectively. Besides, the inhibitory ratio in series [4] came to 82%. In addition, in series [5], the side effects entry was “side effects such as, for instance, erythema and papula were not observed”.
In the case of `CC(c1cccc2ccccc12)N(C)Cc1ccc2ccccc2c1` (stereo not shown) [Example 51], the MIC in series [1] came to 0.39 µg/mL (≈ 1.2 µM); in series [2], 0.2 µg/mL (≈ 0.615 µM).
`CCCCN(Cc1ccc(C(C)(C)C)cc1)Cc1cccc2ccccc12` [Example 20]: the MIC in series [1] is 6.25 µg/mL (≈ 17.4 µM); in series [3], 6.25 µg/mL (≈ 17.4 µM); in series [2] it was 3.13 µg/mL (≈ 8.71 µM).
On to `Cc1cc(C)cc(CN(C)Cc2cccc3ccccc23)c1` [Example 26], for which the MIC in series [1] was determined as 12.5 µg/mL (≈ 43.2 µM); in series [3] it was 12.5 µg/mL (≈ 43.2 µM); in series [2], 6.25 µg/mL (≈ 21.6 µM).
Regarding `CCc1ccc(CN(C)Cc2cccc3ccccc23)cc1` [Example 23], the MIC in series [1] is 0.1 µg/mL (≈ 0.346 µM); in series [3], 0.2 µg/mL (≈ 0.691 µM); in series [2], 0.1 µg/mL (≈ 0.346 µM).
Take `CC(c1cccc2ccccc12)N(C)Cc1ccc(C(C)(C)C)cc1` (stereo not shown) [Example 9, N-4-tert-Butylbenzyl-N-methyl-1-(1-naphthyl)ethylamine]: the MIC in series [1] was determined as 0.025 µg/mL (≈ 0.0754 µM); in series [3] it was 0.025 µg/mL (≈ 0.0754 µM); in series [2] it was 0.003 µg/mL (≈ 0.00905 µM).
On to `CN(Cc1ccc(Cl)c(Cl)c1)Cc1cccc2ccccc12` [Example 17], for which the MIC in series [1], in series [3] and in series [2] was 1.56 µg/mL (≈ 4.72 µM) each time.
For the compound `CN(Cc1ccc(C(C)(C)C)cc1)Cc1cccc2c([N+](=O)[O-])cccc12` [Example 8], the results for the MIC in series [1], in series [3] and in series [2] were 0.1 µg/mL (≈ 0.276 µM), 0.05 µg/mL (≈ 0.138 µM) and 0.025 µg/mL (≈ 0.069 µM), respectively.
The corresponding values for `CCCN(Cc1ccc(C(C)(C)C)cc1)Cc1cccc2ccccc12` [Example 19] are 0.78 µg/mL (≈ 2.26 µM), 0.2 µg/mL (≈ 0.579 µM) and 0.2 µg/mL (≈ 0.579 µM).
Consider `CN(Cc1ccc(C(C)(C)C)cc1)Cc1ccc(Cl)c2ccccc12` [Example 5], for which the figures for the MIC in series [1], in series [3] and in series [2] were 0.1 µg/mL (≈ 0.284 µM), 0.1 µg/mL (≈ 0.284 µM) and 0.025 µg/mL (≈ 0.071 µM), respectively.
Regarding `CCN(Cc1ccc(C(C)(C)C)cc1)Cc1csc2ccccc12` [Example 30], the MIC in series [1] and in series [2] was 0.78 µg/mL (≈ 2.31 µM) each time.
Turning to `CN(Cc1ccc(C(C)(C)C)cc1)Cc1cccc2sccc12` [Example 34], the MIC in series [1] and in series [2] was 0.025 µg/mL (≈ 0.0773 µM) throughout.
Regarding `Cc1ccc(CN(C)Cc2ccc3ccccc3c2)c2ccccc12` [Example 49], the MIC in series [1] and in series [2] was 0.39 µg/mL (≈ 1.2 µM) in each case.
Regarding `CCN(Cc1ccc(C(C)(C)C)cc1)Cc1cccc2ccccc12` [Example 18], the MIC came to 0.1 µg/mL (≈ 0.302 µM) in series [1], 0.05 µg/mL (≈ 0.151 µM) in series [3] and 0.006 µg/mL (≈ 0.0181 µM) in series [2].
For `Cc1ccc(CN(C)Cc2cccc3ccccc23)cc1` [Example 15] the same measures were 0.78 µg/mL (≈ 2.83 µM), 3.13 µg/mL (≈ 11.4 µM) and 0.39 µg/mL (≈ 1.42 µM).
For `CN(Cc1cccc(C(F)(F)F)c1)Cc1cccc2ccccc12` [Example 14] the same measures were 12.5 µg/mL (≈ 38 µM), 6.25 µg/mL (≈ 19 µM) and 6.25 µg/mL (≈ 19 µM).
For `Cc1ccc2ccccc2c1CN(C)Cc1ccc(C(C)(C)C)cc1` [Example 2], the MIC in series [1] turned out to be 0.2 µg/mL (≈ 0.603 µM); in series [3], 0.1 µg/mL (≈ 0.302 µM); in series [2] it was 0.1 µg/mL (≈ 0.302 µM).
In the case of `CN(Cc1ccc(C(C)(C)C)cc1)Cc1ccc(F)c2ccccc12` [Example 4], the MIC in series [1] is 0.025 µg/mL (≈ 0.0745 µM); in series [3], 0.006 µg/mL (≈ 0.0179 µM); in series [2] it was 0.006 µg/mL (≈ 0.0179 µM).
Consider `CN(Cc1ccc(C2CCCCC2)cc1)Cc1cccc2ccccc12` [Example 16], for which the MIC in series [1] came to 3.13 µg/mL (≈ 9.11 µM); in series [3], 1.56 µg/mL (≈ 4.54 µM); in series [2], 1.56 µg/mL (≈ 4.54 µM).
For `Cc1cccc2c(CN(C)Cc3ccc(C(C)(C)C)cc3)csc12` [Example 33], the results for the MIC in series [1] and in series [2] were 0.2 µg/mL (≈ 0.593 µM) and 0.1 µg/mL (≈ 0.296 µM), respectively.
Turning to `CCCCc1ccc(CN(C)Cc2cccc3ccccc23)cc1` [Example 24], the results for the MIC in series [1], in series [3] and in series [2] were 0.1 µg/mL (≈ 0.315 µM), 0.2 µg/mL (≈ 0.63 µM) and 0.1 µg/mL (≈ 0.315 µM), respectively.
For `Cc1ccc(CN(C)Cc2cccc3ccccc23)cc1C` [Example 25], the MIC came to 0.78 µg/mL (≈ 2.7 µM) in series [1], 0.78 µg/mL (≈ 2.7 µM) in series [3] and 0.39 µg/mL (≈ 1.35 µM) in series [2].
On to `CN(Cc1ccc(C(C)(C)C)cc1)Cc1c(O)ccc2ccccc12.Cl` [Example 28, N-(4-tert-butylbenzyl)-N-methyl-2-hydroxy-1-naphthylmethylamine hydrochloride], for which the results for the MIC in series [1], in series [3] and in series [2] were 25 µg/mL, 12.5 µg/mL and 6.25 µg/mL, respectively.
In the case of `CCN(Cc1ccc2c(c1)CCCC2)Cc1cccc2ccccc12` [Example 56], the MIC in series [1] and in series [2] was 0.2 µg/mL (≈ 0.607 µM) each time.
Turning to `Cc1ccc(CN(C)Cc2ccc(C(C)(C)C)cc2)c2ccccc12` [Example 3], the results for the MIC in series [1], in series [3] and in series [2] were 0.1 µg/mL (≈ 0.302 µM), 0.05 µg/mL (≈ 0.151 µM) and 0.025 µg/mL (≈ 0.0754 µM), respectively.
For `Cc1cccc(CN(C)Cc2cccc3ccccc23)c1` [Example 13] the same measures were 25 µg/mL (≈ 90.8 µM), 25 µg/mL (≈ 90.8 µM) and 12.5 µg/mL (≈ 45.4 µM).
